Measured values from US20070275382A1, “Biomarkers for the Efficacy of Somatostatin Analogue Treatment” (priority 2003, published 2007).
*1 amine or outer side, *2 acyl side, *3 side chain or, on linkers, in order; H or OH if unused. Where a SMILES comes first, the peptide text is derived from it. Side-chain parts run from the residue outwards. [ ]: non-standard residue; d: D form. The star is where a group is joined. Ethylenediamine = C(CN[*:2])N[*:1]; Hyp = O=C(O)[CH]1C[CH](O)CN1; Phg = N[CH](C(=O)O)c1ccccc1; CO = O=C([*:1])[*:2]; Bn = c1ccc(C*)cc1

Experiments:
Liver left lateral lobe = assay: Microarray gene expression profiling (HG-U95A), liver; assay type: in vivo, cynomolgus monkeys
Procedure: Origin of tissue and processing. Male and female cynomolgus monkeys received subcutaneously pasireotide (100 μg/animal/day) or the vehicle for 14 days. On day 15, all animals were sacrificed and tissues for RNA extraction were immediately snap-frozen and kept at −80° C. until processing.
RNA expression profiling was conducted by means of the HG-U95A gene expression probe array (Affymetrix; Santa Clara, Calif. USA), containing more than 12,600 probe sets interrogating primarily full-length human genes and also some control probe sets. The experiment was conducted according to the recommendations of the manufacturer. Briefly, total RNA was obtained by acid guanidinium thiocyanate-phenol-chloroform extraction (Trizol®, Invitrogen Life Technologies, San Diego, Calif. USA) from each frozen tissue section. The total RNA was then purified on an affinity resin (Rneasy®, Qiagen) and quantified. Double stranded cDNA was synthesized with a starting amount of approximately 5 μg full-length total RNA using the Superscript® Choice System (Invitrogen Life Technologies, Carlsbad, Calif. USA) in the presence of a T7-(dT)24 DNA oligonucleotide primer. Following synthesis, the cDNA was purified by phenol/chloroform/isoamyl alcohol extraction and ethanol precipitation. The purified cDNA was then transcribed in vitro using the BioArray® High Yield RNA Transcript Labeling Kit (ENZO, Farmingdale, N.Y. USA) in the presence of biotinylated ribonucleotides form biotin labelled cRNA. The labelled cRNA was then purified on an affinity resin (Rneasy®, Qiagen), quantified and fragmented. An amount of approximately 10 μg labelled cRNA was hybridized for 16 hours at 45° C. to an expression probe array. The array was then washed and stained twice with streptavidin-phycoerythrin (Molecular Probes,) using the GeneChip® Fluidics Workstation 400 (Affymetrix, Santa Clara, Calif. USA). The array was then scanned twice using a confocal laser scanner (GeneArray® Scanner, Agilent, Palo Alto, Calif. USA) resulting in one scanned image. This resulting “.dat-file” was processed using the MAS4 program (Affymetrix) into a “.cel-file”. The “.cel file” was captured and loaded into the Affymetrix GeneChip® Laboratory Information Management System (LIMS). The LIMS database is connected to a UNIX Sun Solaris server through a network filing system that allows for the average intensities for all probes cells (CEL file) to be downloaded into an Oracle database (NPGN). Raw data was converted to expression levels using a “target intensity” of 150. The data were evaluated for quality control and loaded in the GeneSpring® software 4.2.4 (Silicon Genetics, Calif. USA) for analysis.
On the human Affymetrix HGU95Av2 chip, probe sets for individual genes contain 20 oligonucleotide pairs, each composed of a “perfect match” 25-mer and a “mismatch” 25-mer differing from the “perfect” match oligonucleotide at a single base. After probe labelling, hybridization, and laser scanning, the expression level was estimated by averaging the differences in signal intensity measured by oligonucleotide pairs of a given probe (AvgDiff value). The fold changes and directions were calculated for selected genes, from the differences of the AvgDiff values between controls and treated.
To identify genes that were impacted by pasireotide, the dataset was initially filtered to exclude in a first wave of analysis, genes whose values were systematically in the lower expression ranges where the experimental noise is high (at least 80 in a number of experiments corresponding to the smallest number of replicas of any experimental point). In a second round of selection a threshold p-value of 0.05 (based on a t-test) identified differences between treated and control based on a two component error model (Global Error Model) and, whenever possible, with a stepdown correction for multi-hypothesis testing (Benjamini and Hochberg false discovery rate). […]

hSST-4 = target: T1, hSST-4 (Homo sapiens, UniProt P31391); conditions: background statement; cited from earlier work
T1 construct: expressed in transfected cells; host or cells: CHO cells
T1 sequence (P31391 whole entry): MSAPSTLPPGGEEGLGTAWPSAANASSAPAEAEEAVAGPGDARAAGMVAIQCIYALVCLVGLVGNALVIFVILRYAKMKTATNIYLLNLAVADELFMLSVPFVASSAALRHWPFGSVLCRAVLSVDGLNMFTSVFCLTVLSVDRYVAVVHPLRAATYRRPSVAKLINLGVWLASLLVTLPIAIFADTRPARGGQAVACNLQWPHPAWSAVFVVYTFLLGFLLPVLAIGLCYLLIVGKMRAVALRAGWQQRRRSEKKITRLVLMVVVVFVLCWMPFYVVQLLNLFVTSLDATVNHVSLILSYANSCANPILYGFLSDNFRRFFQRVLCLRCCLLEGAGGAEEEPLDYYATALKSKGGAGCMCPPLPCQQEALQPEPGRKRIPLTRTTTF

[1] = ↑ increase, treated vs controls
[2] = ↓ decrease, treated vs controls

NCCCCC1NC(=O)C(Cc2c[nH]c3ccccc23)NC(=O)C(c2ccccc2)NC(=O)C2CC(OC(=O)NCCN)CN2C(=O)C(Cc2ccccc2)NC(=O)C(Cc2ccc(OCc3ccccc3)cc2)NC1=O (stereo not drawn) [Pasireotide, cyclo[4-(NH2—C2H4—NH—CO—O)Pro-Phg-DTrp-Lys-Tyr(4-Bzl)-Phe]] (cyclo(F[Hyp]([CO-Ethylenediamine])[Phg]WKY(Bn)); configuration not given here)
GR expression level, AvgDiff (range) (Liver left lateral lobe; 0.1 mg/animal/14day): 80 (70 to 360) | IGF-2 expression level, AvgDiff (range) (Liver left lateral lobe; 0.1 mg/animal/14day): 269 (224 to 291) | IGFBP2 expression level, AvgDiff (range) (Liver left lateral lobe; 0.1 mg/animal/14day): 4,476 (3,191 to 5,422) | Insulin promoter factor 1, homeodomain transcription factor expression level, AvgDiff (range) (Liver left lateral lobe; 0.1 mg/animal/14day): 42 (23 to 52) | 5-hydroxytryptamine (serotonin) receptor 6 RNA expression fold change (Liver left lateral lobe; [1]): receptor 6 ↑ x2.5 | Adenylyl cyclase-associated protein RNA expression fold change (Liver left lateral lobe; [1]): ↑ x1.5 | Arginine vasopressin receptor 2 RNA expression fold change (Liver left lateral lobe; [1]): receptor 2 ↑ x2.5 | B lymphoid tyrosine kinase RNA expression fold change (Liver left lateral lobe; [1]): ↑ x3.5 | Bone-derived GF RNA expression fold change (Liver left lateral lobe; [1]): ↑ x3 | Bruton agamma globulinaemia tyrosine kinase RNA expression fold change (Liver left lateral lobe; [1]): ↑ x1.5 | Butyrate response factor 2 (EGF-response factor 2) RNA expression fold change (Liver left lateral lobe; [1]): factor 2) ↑ x2 | Calcium/calmodulin-dependent protein kinase kinase 2, β RNA expression fold change (Liver left lateral lobe; [1]): ↑ x3 | Calmodulin 2 (phosphorylase kinase, δ) RNA expression fold change (Liver left lateral lobe; [1]): kinase, δ) ↑ x2 | Cdk 5, regulatory subunit 1 RNA expression fold change (Liver left lateral lobe; [1]): subunit 1 ↑ x2.5 | Cdki1A (p21/Cip1) RNA expression fold change (Liver left lateral lobe; [1]): (p21/Cip1) ↑ x6 | Corticosteroid binding globulin precursor RNA expression fold change (Liver left lateral lobe; [1]): precursor ↑ x2 | DAG kinase, α (80 kD) RNA expression fold change (Liver left lateral lobe; [1]): (80 kD) ↑ x3 | DAG kinase, δ (130 kD) RNA expression fold change (Liver left lateral lobe; [1]): ↑ x1.5 | Dopamine receptor D2 RNA expression fold change (Liver left lateral lobe; [1]): receptor D2 ↑ x3.5 | Dopamine receptor D3 RNA expression fold change (Liver left lateral lobe; [1]): receptor D3 ↑ x2 | EGFR (avian erythroblastic leukaemia viral (v-erb-b) oncogene homolog) RNA expression fold change (Liver left lateral lobe; [1]): homolog) ↑ x2 | FGFR2 (bacteria-expressed kinase, keratinocyte growth factor receptor, craniofacial dysplasia) RNA expression fold change (Liver left lateral lobe; [1]): dysplasia) ↑ x2 | Fas-activated serine/threonine kinase RNA expression fold change (Liver left lateral lobe; [1]): kinase ↑ x1.5 | GABA (A) receptor, γ2 precursor RNA expression fold change (Liver left lateral lobe; [1]): precursor ↑ x4 | GABA(A) receptor-associated protein RNA expression fold change (Liver left lateral lobe; [1]): ↑ x1.5 | GCSF RNA expression fold change (Liver left lateral lobe; [1]): GCSF ↑ x3.5 | Glucacon receptor RNA expression fold change (Liver left lateral lobe; [1]): receptor ↑ x5 | Glutamate receptor, metabotropic 4 RNA expression fold change (Liver left lateral lobe; [1]): ↑ x1.5 | Growth differentiation factor 1 RNA expression fold change (Liver left lateral lobe; [1]): factor 1 ↑ x3 | IFN regulatory factor 5 RNA expression fold change (Liver left lateral lobe; [1]): factor 5 ↑ x2.5 | IFN-induced leucine zipper protein RNA expression fold change (Liver left lateral lobe; [1]): ↑ x1.5 | IFN-inducible RNA-dependent protein kinase RNA expression fold change (Liver left lateral lobe; [1]): kinase ↑ x4 | IFNγ responsive transcript RNA expression fold change (Liver left lateral lobe; [1]): transcript ↑ x1.5 | IGFBP2 RNA expression fold change (Liver left lateral lobe; [1]): IGFBP2 ↑ x2 | IL2 R, γ chain, precursor RNA expression fold change (Liver left lateral lobe; [1]): precursor ↑ x2.5 | IP 5-phosphatase RNA expression fold change (Liver left lateral lobe; [1]): phosphatase ↑ x2 | Natriuretic peptide receptor A/guanylate cyclase A (atrionatriuretic peptide receptor A) RNA expression fold change (Liver left lateral lobe; [1]): A) ↑ x6 | Nck, Ash and PLC γ binding protein NAP4 RNA expression fold change (Liver left lateral lobe; [1]): ↑ x3.5 | PDGF, α polypeptide RNA expression fold change (Liver left lateral lobe; [1]): polypeptide ↑ x1.5 | PDGFR, α polypeptide RNA expression fold change (Liver left lateral lobe; [1]): polypeptide ↑ x2 | PI transfer protein RNA expression fold change (Liver left lateral lobe; [1]): protein ↑ x3.5 | PKC substrate 80K-H RNA expression fold change (Liver left lateral lobe; [1]): 80K-H ↑ x1.5 | PLA2, group IIA (platelets, synovial fluid) RNA expression fold change (Liver left lateral lobe; [1]): fluid) ↑ x5.5 | PLC, γ 1 (formerly subtype 148) RNA expression fold change (Liver left lateral lobe; [1]): 148) ↑ x2 | Rb binding protein RNA expression fold change (Liver left lateral lobe; [1]): protein ↑ x2.5 | Rb-like 2 (p130) RNA expression fold change (Liver left lateral lobe; [1]): (p130)↑ x3 | Receptor (calcitonin) activity modifying protein 1 precursor RNA expression fold change (Liver left lateral lobe; [1]): 1 precursor ↑ x1.5 | Solute carrier family 9 (sodium/hydrogen exchanger), isoform 3 regulatory factor 1 RNA expression fold change (Liver left lateral lobe; [1]): ↑ x11.5 | Solute carrier family 11 (Na+/phosphate symporters), member 1 RNA expression fold change (Liver left lateral lobe; [1]): member 1 ↑ x2.5 | TGFβ activated kinase-binding protein 1 RNA expression fold change (Liver left lateral lobe; [1]): protein 1 ↑ x2.5 | THR interacting protein 15 RNA expression fold change (Liver left lateral lobe; [1]): protein 15 ↑ x1.5 | THR sulfo transferase RNA expression fold change (Liver left lateral lobe; [1]): transferase ↑ x2.5 | TNF (ligand) superfamily, member 10 RNA expression fold change (Liver left lateral lobe; [1]): 10 ↑ x1.5 | δ sleep inducing peptide, immunoreactor RNA expression fold change (Liver left lateral lobe; [1]): ↑ x2.5 | 1-PI-4-phosphate 5-kinase isoform C RNA expression fold change (Liver left lateral lobe; [2]): ↓ x2 | ATPase, H+/K+ exchanging, beta polypeptide RNA expression fold change (Liver left lateral lobe; [2]): polypeptide ↓ x2 | BCL2-like 1 RNA expression fold change (Liver left lateral lobe; [2]): ↓ x3.5 | Ca++ channel, voltage-dependent, P/Q type, alpha 1A subunit RNA expression fold change (Liver left lateral lobe; [2]): subunit ↓ x2.5 | Cdk like-2 RNA expression fold change (Liver left lateral lobe; [2]): Cdk like-2 ↓ x2 | Cdki 2D (p19, inhibits CDK4) RNA expression fold change (Liver left lateral lobe; [2]): ↓ x2.5 | Death-associated protein 6 RNA expression fold change (Liver left lateral lobe; [2]): ↓ x2.5 | EGF (β-urogastrone) RNA expression fold change (Liver left lateral lobe; [2]): ↓ x2.5 | EGF-like repeats and discoidin I-like domains 3 RNA expression fold change (Liver left lateral lobe; [2]): domains 3 ↓ x1.5 | Fms-related tyrosine kinase 1(VEGF/vascular permeability factor receptor) RNA expression fold change (Liver left lateral lobe; [2]): receptor) ↓ x1.5 | GFR-bound protein 2 RNA expression fold change (Liver left lateral lobe; [2]): protein 2 ↓ x2.5 | Glycosylphosphatidylinositol specific phospholipase D1 RNA expression fold change (Liver left lateral lobe; [2]): ↓ x1.5 | IFN-related developmental regulator 2 RNA expression fold change (Liver left lateral lobe; [2]): regulator 2 ↓ x1.5 | IFN-stimulated protein, 15 kDa RNA expression fold change (Liver left lateral lobe; [2]): protein, 15 kDa ↓ x2 | IGF-2 RNA expression fold change (Liver left lateral lobe; [2]): IGF-2 ↓ x2.5 | Insulin promoter factor 1, homeodomain transcription factor RNA expression fold change (Liver left lateral lobe; [2]): ↓ x1.5 | PI transfer protein, β RNA expression fold change (Liver left lateral lobe; [2]): protein, β ↓ x1.5 | PKC, ι RNA expression fold change (Liver left lateral lobe; [2]): PKC, ι ↓ x1.5 | Rb 1 (including osteosarcoma) RNA expression fold change (Liver left lateral lobe; [2]): ↓ x2 | TGF, β1 RNA expression fold change (Liver left lateral lobe; [2]): TGF, β1 ↓ x1.5 | TGFβR III (betaglycan, 300 kδ) RNA expression fold change (Liver left lateral lobe; [2]): 300 kδ) ↓ x2 | TNF-α converting enzyme RNA expression fold change (Liver left lateral lobe; [2]): enzyme ↓ x2 | binding to SSTR4 (hSST-4): binds to all somatostatin receptors except SSTR4
